One block for each compound: values may come before it.
Test system: 876862-298-R-J1-PDC complex spheroids, viability % test/control
Experiment: Anticancer human tumor 876862-298-R-J1-PDC patient-derived endometrial carcinoma cell line growth inhibition [CLK]
Details: for IC50: curve of first compound; for viability, T/C: stronger effect = lower value
In short: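 Multi-cell-type spheroids combined patient-derived tumor cells with HUVEC endothelial cells and human mesenchymal stem cells. Paired agents were dosed in half-log steps down from about clinical Cmax, or from 10 microM where Cmax was unknown.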

[1] = second compound 0.0316 µM, first compound 0.0316 µM
[2] = second compound 0.0316 µM, first compound 0.1 µM
[3] = second compound 0.0316 µM, first compound 0.316 µM
[4] = second compound 0.0316 µM, first compound 1 µM
[5] = second compound 0.0316 µM, first compound 3.16 µM
[6] = second compound 0.0316 µM, first compound 10 µM
[7] = second compound 0.1 µM, first compound 0.0316 µM
[8] = second compound 0.1 µM, first compound 0.1 µM
[9] = second compound 0.1 µM, first compound 0.316 µM
[10] = second compound 0.1 µM, first compound 1 µM
[11] = second compound 0.1 µM, first compound 3.16 µM
[12] = second compound 0.1 µM, first compound 10 µM
[13] = second compound 0.316 µM, first compound 0.0316 µM
[14] = second compound 0.316 µM, first compound 0.1 µM
[15] = second compound 0.316 µM, first compound 0.316 µM
[16] = second compound 0.316 µM, first compound 1 µM
[17] = second compound 0.316 µM, first compound 3.16 µM
[18] = second compound 0.316 µM, first compound 10 µM
[19] = second compound 1 µM, first compound 0.0316 µM
[20] = second compound 1 µM, first compound 0.1 µM
[21] = second compound 1 µM, first compound 0.316 µM
[22] = second compound 1 µM, first compound 1 µM
[23] = second compound 1 µM, first compound 3.16 µM
[24] = second compound 1 µM, first compound 10 µM
[25] = second compound 3.16 µM, first compound 0.0316 µM
[26] = second compound 3.16 µM, first compound 0.1 µM
[27] = second compound 3.16 µM, first compound 0.316 µM
[28] = second compound 3.16 µM, first compound 1 µM
[29] = second compound 3.16 µM, first compound 3.16 µM
[30] = second compound 3.16 µM, first compound 10 µM
[31] = second compound 10 µM, first compound 0.0316 µM
[32] = second compound 10 µM, first compound 0.1 µM
[33] = second compound 10 µM, first compound 0.316 µM
[34] = second compound 10 µM, first compound 1 µM
[35] = second compound 10 µM, first compound 3.16 µM
[36] = second compound 10 µM, first compound 10 µM
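Also: spheroids exposed to drugs for 7 days before readout.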
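For viability, T/C in this document: 100% = DMSO vehicle control wells.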

IC50 (second compound 0.0316 µM): 3010 nM
IC50 (second compound 0.1 µM): 81.2 nM
IC50 (second compound 0.316 µM): < 31.6 nM
IC50 (second compound 1 µM): < 31.6 nM
IC50 (second compound 3.16 µM): < 31.6 nM
IC50 (second compound 10 µM): < 31.6 nM
SMILES: COc1ccc([C@@H](O)c2cc(-c3ncnc4cc(N5CCOCC5)ccc34)c(F)cc2Cl)nn1 + CNC(=O)c1ccc(Nc2nc(OC3CCCC3)c3c(-c4ccc5nc(C)oc5c4)c[nH]c3n2)c(OC)c1
viability, T/C [1]: 72%
viability, T/C [2]: 84.4%
viability, T/C [3]: 69.5%
viability, T/C [4]: 66.1%
viability, T/C [5]: 49.4%
viability, T/C [6]: 30.5%
viability, T/C [7]: 50.6%
viability, T/C [8]: 49.3%
viability, T/C [9]: 48.7%
viability, T/C [10]: 38.8%
viability, T/C [11]: 34%
viability, T/C [12]: 26.8%
viability, T/C [13]: 47%
viability, T/C [14]: 39.7%
viability, T/C [15]: 47.7%
viability, T/C [16]: 33.2%
viability, T/C [17]: 27.1%
viability, T/C [18]: 21.6%
viability, T/C [19]: 31.9%
viability, T/C [20]: 28.8%
viability, T/C [21]: 30.4%
viability, T/C [22]: 26.8%
viability, T/C [23]: 21.1%
viability, T/C [24]: 15.5%
viability, T/C [25]: 25%
viability, T/C [26]: 21.2%
viability, T/C [27]: 18.5%
viability, T/C [28]: 20.3%
viability, T/C [29]: 17.2%
viability, T/C [30]: 11.9%
viability, T/C [31]: 23.2%
viability, T/C [32]: 19.2%
viability, T/C [33]: 17.9%
viability, T/C [34]: 16.3%
viability, T/C [35]: 17%
viability, T/C [36]: 10.2%

IC50 (second compound 0.0316 µM): < 31.6 nM
IC50 (second compound 0.1 µM): < 31.6 nM
IC50 (second compound 0.316 µM): < 31.6 nM
IC50 (second compound 1 µM): < 31.6 nM
IC50 (second compound 3.16 µM): < 31.6 nM
IC50 (second compound 10 µM): < 31.6 nM
SMILES: COc1cccc2c1C(=O)c1c(O)c3c(c(O)c1C2=O)CC(O)(C(=O)CO)CC3OC1CC(N)C(O)C(C)O1 (centres undefined) + CNC(=O)c1ccc(Nc2nc(OC3CCCC3)c3c(-c4ccc5nc(C)oc5c4)c[nH]c3n2)c(OC)c1
viability, T/C [1]: 27.4%
viability, T/C [2]: 11.2%
viability, T/C [3]: 6.58%
viability, T/C [4]: 5.25%
viability, T/C [5]: 0.7%
viability, T/C [6]: 4.06%
viability, T/C [7]: 22.3%
viability, T/C [8]: 10.5%
viability, T/C [9]: 6.67%
viability, T/C [10]: 4.08%
viability, T/C [11]: 0.67%
viability, T/C [12]: 3.82%
viability, T/C [13]: 21.7%
viability, T/C [14]: 7.88%
viability, T/C [15]: 5.6%
viability, T/C [16]: 2.96%
viability, T/C [17]: 0.81%
viability, T/C [18]: 4.75%
viability, T/C [19]: 15.3%
viability, T/C [20]: 5.96%
viability, T/C [21]: 4.62%
viability, T/C [22]: 2.24%
viability, T/C [23]: 1.51%
viability, T/C [24]: 5.96%
viability, T/C [25]: 13%
viability, T/C [26]: 6.62%
viability, T/C [27]: 3.35%
viability, T/C [28]: 1.57%
viability, T/C [29]: 1.6%
viability, T/C [30]: 6.55%
viability, T/C [31]: 12.1%
viability, T/C [32]: 5.47%
viability, T/C [33]: 3.35%
viability, T/C [34]: 1.56%
viability, T/C [35]: 2.15%
viability, T/C [36]: 7.11%

Reference: PubChem BioAssay AID2060607 (Molecular Pharmacology Branch, DTP, NCI, 2025)
